Results: patent US5587389A, “Substituted heteroarylaklylthiopyridines for controlling helicobacter bacteria” (BYK Gulden Lomberg Chemische Fabrik GmbH, priority 1993, dated 1996)

Tested on: Helicobacter pylori
Assay: activity against Helicobacter pylori (MIC), modified method of Iwahi et al., Columbia agar, growth period of 4 days
Type: cell-based
Settings: Columbia agar (Oxoid)
Experimental: The compounds of the formula I were tested for their activity against Helicobacter pylori following a modification of the method described by Tomoyuki Iwahi et al. (Antimicrobial Agents and Chemotherapy, 1991, 490-496) using Columbia agar (Oxoid) over a growth period of 4 days. The MIC values listed in Table 2 below were found here for the tested compounds (the compound numbers shown agree with the compound numbers in the description).

Compound | MIC Value [µg/mL]
Cc1c(SCCc2ccccn2)ccnc1CSc1nc2ccccc2[nH]1 [Compound 17] | ≤ 1.0

Same assay, conditions: Helicobacter pylori, 96 h, Columbia agar (Oxoid)

Compound | MIC [µg/mL]
Cc1c(SCc2ccco2)ccnc1CSc1nc2ccccc2[nH]1 [Compound 1, 2-{[[4-(2-Furylmethylthio)-3-methyl,2-pyridinyl]methyl]thio}-1H-benzimidazole] | ≤ 1
COc1c(SCc2ccco2)ccnc1CSc1nc2ccccc2[nH]1 [Compound 2, 2-{[[4-(2-Furylmethylthio)-3-methoxy-2-pyridinyl]methyl]thio}-1H-benzimidazole] | ≤ 1
Cc1c(SCc2cccs2)ccnc1CSc1nc2ccccc2[nH]1 [Compound 5, 2-{[[3-Methyl-4-(2-thienylmethylthio)-2-pyridinyl]methyl]thio}-1H-benzimidazole] | ≤ 1
Cc1c(SCc2ccsc2)ccnc1CSc1nc2ccccc2[nH]1 [Compound 6, 2-{[[3-Methyl-4-(3-thienylmethylthio)-2-pyridinyl]methyl]thio}-1H-benzimidazole] | ≤ 1
c1csc(CSc2ccnc(CSc3nc4ccccc4[nH]3)c2)c1 [Compound 8, 2-{[[4-(2-Thienylmethylthio)-2,pyridinyl]methyl]thio}-1H-benzimidazole] | ≤ 1

Now from value to compound:

MIC [µg/mL] | Compound
≤ 1 | Cc1c(SCc2ccco2)ccnc1CSc1nc2ccccc2[nH]1.Cl.Cl [Compound 12, 2-{[[4-(2-Furylmethylthio)-3-methyl-2-pyridinyl]methyl]thio}-1H-benzimidazole dihydrochloride]
≤ 1 | COc1ccnc(CSc2ccnc(CSc3nc4ccccc4[nH]3)c2C)c1OC [Compound 16, 2-{[[4-3,4-Dimethoxy-2-pyridinylmethylthiol-3-methyl-2-pyridinyl]methyl]thio}-1H-benzimidazole]
≤ 1 | Cc1c(SCCCn2ccnc2)ccnc1CSc1nc2ccccc2[nH]1 [Compound 18, 2-{[[-4-[3-(Imidazol-1-yl)propylthio]-3-methyl-2-pyridinyl]methyl]thio}-1H-benzimidazole]
≤ 1 | Cc1c(SCCCn2ccnc2C)ccnc1CSc1nc2ccccc2[nH]1 [Compound 19, 2-{[[4-[3-(2-Methylimidazol-1-yl)propylthio]-3-methyl-2-pyridinyl]methyl]thio}-1H-benzimidazole]
≤ 1 | Cc1c(SCc2ccco2)ccnc1C[S+]([O-])c1nc2ccccc2[nH]1 (centres unmarked) [Compound 20, 2-{[[4-(2-Furylmethylthio)-3-methyl-2-pyridinyl]methyl]sulfinyl}-1H-benzimidazole]
